Results reported in patent publication US20070072897A1, “Phenylaminopropanol derivatives and methods of their use” (Wyeth, priority 2005, published 2007).
Structures can show the parent of a compound that is named as a salt.

Columns and labels:
human hNET = biological target: T1, human hNET (Homo sapiens, UniProt P23975); assay: Norepinephrine (NE) uptake assay in MDCK-Net6 cells; type: cell-based; conditions: [3H]NE uptake; for EC50: MDCK-Net6 cells stably transfected with hNET; for inhibition at 1 µM: MDCK-Net6 cells, read-out: hNET Percentage inhibition at 1 μM
T1 construct: expressed in transfected cells; host or cells: MDCK (MDCK-Net6)
Protocol: Cells were plated at 300,000/T75 flask and cells were split twice weekly. […] Cells were plated at 250,000 cells/T75 flask and split twice weekly.
Norepinephrine (NE) Uptake Assay
On day 1, cells were plated at 3,000 cells/well in growth medium and maintained in a cell incubator (37° C., 5% CO2). On day 2, growth medium was replaced with 200 μl of assay buffer (25 mM HEPES; 120 mM NaCl; 5 mM KCl; 2.5 mM CaCl2; 1.2 mM MgSO4; 2 mg/ml glucose (pH 7.4, 37° C.)) containing 0.2 mg/ml ascorbic acid and 10 μM pargyline. Plates containing cells with 200 μl of assay buffer were equilibrated for 10 minutes at 37° C. prior to addition of compounds. A stock solution of desipramine was prepared in DMSO (10 mM) and delivered to triplicate wells containing cells for a final test concentration of 1 μM. Data from these wells were used to define non-specific NE uptake (minimum NE uptake). Test compounds were prepared in DMSO (10 mM) and diluted in assay buffer according to test range (1 to 10,000 nM). Twenty-five microliters of assay buffer (maximum NE uptake) or test compound were added directly to triplicate wells containing cells in 200 μl of assay buffer. The cells in assay buffer with test compounds were incubated for 20 minutes at 37° C. […] The reaction was terminated by decanting the supernatant from the plate. The plates containing cells were washed twice with 200 μl assay buffer (37° C.) to remove free radioligand. The plates were then inverted, left to dry for 2 minutes, then reinverted and air-dried for an additional 10 minutes. […] After cell lysis, 75 μl of scintillation cocktail was added to each well and the plates were sealed with film tape. The plates were returned to the shake table and vigorously shaken for a minimum of 10 minutes to ensure adequate partitioning of organic and aqueous solutions. The plates were counted in a Wallac Microbeta counter (PerkinElmer) to collect the raw cpm data.
For each experiment, a data stream of cpm values collected from the Wallac Microbeta counter was downloaded to a Microsoft Excel statistical application program. Calculations of EC50 values were made using the transformed-both-sides logistic dose response program written by Wyeth Biometrics Department.

human 5-HT2A receptor = biological target: T2, human 5-HT2A receptor (Homo sapiens, UniProt P28223); assay: 5-HT2A FLIPR assay (calcium response to DOI) in CHO cells; type: cell-based; conditions: for IC50: antagonist inhibition of 3 nM DOI stimulation, CHO cells, FLIPR; for inhibition at 1 µM: CHO, read-out: 5-HT2A Percentage inhibition at 1 μM
T2 construct: expressed in transfected cells; host or cells: CHO
Protocol: Cells are washed with PBS without Ca^2+ and 3 mL Trypsin is added to dissociate cells. After 3 minute incubation, 7 mL Trypsin Neutralizing Solution is added. Cells are then aspirated from flask and mixed in a 50 mL conical tube. 10 μL sample is used to count cells on a hemacytometer. […] Two 96-well drug plates are prepared for each cell plate. Plate 1 will contain compounds to be tested and plate 2 will contain the agonist DOI (3 nM) to activate a calcium response. Specific details of compound preparation are listed below. […] Outside wells are not used due to an edge effect seen in these cells. The reference compounds DOI and 5-HT are used as standard 5HT agonists. […] Standards for plate one are Vehicle, 1 μM DOI, and 3 nM MDL. […] On the day of the assay, test compound solutions of appropriate concentrations are diluted in assay buffer as described for single concentration testing. This procedure is followed to ensure that the solvent concentration is consistent across dilutions. The typical concentration testing range of compounds is 10^−10—10^−5 M in half log or full log increments. A 10 μM DOI stock is diluted to 60 nM and added to the respective wells. The pipeting station of the FLIPR will make an additional 20-fold dilution for a final concentration of 3 nM. Standards for this plate include Vehicle and 3 nM DOI. Contents of dye vial (Molecular Devices #R8090) are dissolved in 100 mL of 1×HBSS supplemented with 20 mM HEPES. Aliquots can be frozen at −20° C. for up to one week for future use. On the day of assay, dye is thawed and diluted to half concentration. […] Cells are allowed to adhere for 24 hours in 96-well plates. […] Cell, compound and DOI plates are loaded into the FLIPR machine. The baseline fluorescence level is read once every second for 1 minute. Compound (10 μL) is transferred from the compound plate to the cells and the fluorescence level recorded every 6 seconds for 2 minutes to determine any agonist activity. Baseline fluorescence is recorded again every second for 10 seconds. For antagonist determination, 10 μL of 3 nM DOI is transferred from the DOI plate to the cells and the fluorescence level recorded every 6 seconds for 5 minutes. The pipetting unit of the FLIPR machine completes all transfers. […] The data are log transformed prior to analysis.

T2 sequence (P28223 whole entry): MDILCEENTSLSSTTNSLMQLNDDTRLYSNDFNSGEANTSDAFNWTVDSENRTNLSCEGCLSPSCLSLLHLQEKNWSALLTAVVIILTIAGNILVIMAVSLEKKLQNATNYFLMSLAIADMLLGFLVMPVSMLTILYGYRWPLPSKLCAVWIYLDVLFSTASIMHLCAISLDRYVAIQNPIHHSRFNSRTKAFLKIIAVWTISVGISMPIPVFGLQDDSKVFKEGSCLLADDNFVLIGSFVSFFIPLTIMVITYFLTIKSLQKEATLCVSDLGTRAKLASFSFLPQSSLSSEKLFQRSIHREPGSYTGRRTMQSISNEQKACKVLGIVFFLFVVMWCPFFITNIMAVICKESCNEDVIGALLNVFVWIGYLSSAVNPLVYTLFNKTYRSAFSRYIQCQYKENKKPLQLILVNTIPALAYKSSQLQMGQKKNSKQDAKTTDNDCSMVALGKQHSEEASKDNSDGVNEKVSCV
T1 sequence (P23975 whole entry): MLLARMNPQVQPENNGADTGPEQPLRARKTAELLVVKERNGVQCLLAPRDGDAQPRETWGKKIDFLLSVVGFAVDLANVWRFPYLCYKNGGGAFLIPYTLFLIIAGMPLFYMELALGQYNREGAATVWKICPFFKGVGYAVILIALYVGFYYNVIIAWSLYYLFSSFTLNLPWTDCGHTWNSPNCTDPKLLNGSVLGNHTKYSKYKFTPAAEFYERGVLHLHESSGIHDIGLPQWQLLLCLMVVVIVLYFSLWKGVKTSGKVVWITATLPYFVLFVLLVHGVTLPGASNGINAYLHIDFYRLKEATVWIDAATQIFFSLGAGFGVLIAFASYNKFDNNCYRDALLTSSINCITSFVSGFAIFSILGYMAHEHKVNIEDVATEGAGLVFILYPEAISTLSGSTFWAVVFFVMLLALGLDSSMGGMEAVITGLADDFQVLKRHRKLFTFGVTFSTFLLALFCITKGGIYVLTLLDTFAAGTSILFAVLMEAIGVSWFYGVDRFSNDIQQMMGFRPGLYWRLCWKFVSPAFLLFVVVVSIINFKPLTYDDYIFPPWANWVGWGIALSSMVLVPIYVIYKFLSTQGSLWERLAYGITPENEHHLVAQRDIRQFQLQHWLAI

SMILES | EC50 (human hNET) [nM] | further results
CNC[C@@H](O)[C@H](c1ccccc1)n1ccc2cc(OCc3ccccc3OC)ccc21 [Example 5, (1S,2R)-1-{5-[(2-methoxybenzyl)oxy]-1H-indol-1-yl}-3-(methylamino)-1-phenylpropan-2-ol hydrochloride] | 196 | IC50 (human 5-HT2A receptor): 678 nM
CNC[C@@H](O)[C@H](c1cccc(F)c1)n1ccc2cc(OCc3ccccc3)ccc21 [Example 24, (1S,2R)-1-[5-(benzyloxy)-1H-indol-1-yl]-1-(3-fluorophenyl)-3-(methylamino)propan-2-ol hydrochloride] | 36 | inhibition at 1 µM (human 5-HT2A receptor): 20%
CC(C)NC[C@@H](O)[C@H](c1ccccc1)N1C(=O)C2(CCCCC2)c2ccc(F)cc21 [Example 97, 6′-fluoro-1′-[(1S,2R)-2-hydroxy-3-(isopropylamino)-1-phenylpropyl]spiro[cyclohexane-1,3′-indol]-2′(1′H)-one hydrochloride] |  | inhibition at 1 µM (human hNET): 0%; inhibition at 1 µM (human 5-HT2A receptor): 44%
CNC[C@@H](O)[C@H](c1ccccc1)N1C(=O)C2(CCCCC2)c2cccc(Cl)c21 [Example 31, 7′-Chloro-1′-[(1S,2R)-2-hydroxy-3-(methylamino)-1-phenylpropyl]spiro[cyclohexane-1,3′-indol]-2′(1′H)-one hydrochloride] | 32 | IC50 (human 5-HT2A receptor): 203 nM
CNC[C@@H](O)[C@H](c1ccccc1)n1ccc2cc(OCc3ccc(C)cc3)ccc21 [Example 16, (1S,2R)-3-(methylamino)-1-{5-[(4-methylbenzyl)oxy]-1H-indol-1-yl}-1-phenylpropan-2-ol hydrochloride] | 37 | IC50 (human 5-HT2A receptor): 4120 nM
CNC[C@@H](O)[C@H](c1cccc(F)c1)N1C(=O)C(C)(C)c2cc(F)cc(F)c21 [Example 63, 5,7-difluoro-1-[(1S,2R)-1-(3-fluorophenyl)-2-hydroxy-3-(methylamino)propyl]-3,3-dimethyl-1,3-dihydro-2H-indol-2-one hydrochloride] | 51 | 
CC1(C)CN([C@@H](c2cc(F)cc(F)c2)[C@H](O)CN)c2ccccc21 [Example 61, (1S,2R)-3-amino-1-(3,5-difluorophenyl)-1-(3,3-dimethyl-2,3-dihydro-1H-indol-1-yl)propan-2-ol hydrochloride] | 216 | 
CNC[C@@H](O)[C@H](c1cccc(F)c1)n1cc(-c2ccc(F)cc2)c2ccccc21 [Example 36, (1S,2R)-1-(3-fluorophenyl)-1-[3-(4-fluorophenyl)-1H-indol-1-yl]-3-(methylamino)propan-2-ol hydrochloride] | 711 | 
CCOc1ccccc1-c1cn([C@@H](c2cccc(F)c2)[C@H](O)CNC)c2ccccc12 [Example 42, (1S,2R)-1-[3-(2-ethoxyphenyl)-1H-indol-1-yl]-1-(3-fluorophenyl)-3-(methylamino)propan-2-ol hydrochloride] | 71 | 
CNC[C@@H](O)[C@H](c1cccc(F)c1)n1ccc2cc(O)ccc21 [Example 66, 1-[(1S,2R)-1-(3-fluorophenyl)-2-hydroxy-3-(methylamino)propyl]-1H-indol-5-ol hydrochloride] | 3 | 
CNC[C@@H](O)[C@H](c1ccccc1)n1ccc2cc(C)nc(Cl)c21 [Example 44, (1S,2R)-1-(7-chloro-5-methyl-1H-pyrrolo[2,3-c]pyridin-1-yl)-3-(methylamino)-1-phenylpropan-2-ol hydrochloride] | 416 | 
CNC[C@@H](O)[C@H](c1cccc(F)c1)N1CCN(Cc2ccccc2)c2ccccc21 [Example 53, (1S,2R)-1-(4-benzyl-3,4-dihydroquinoxalin-1(2H)-yl)-1-(3-fluorophenyl)-3-(methylamino)propan-2-ol hydrochloride] |  | inhibition at 1 µM (human hNET): 49%
CNC[C@@H](O)[C@H](c1cc(F)cc(Cl)c1)N1CC(C)(C)c2ccccc21 [Example 115, (1S,2R)-1-(3-chloro-5-fluorophenyl)-1-(3,3-dimethyl-2,3-dihydro-1H-indol-1-yl)-3-(methylamino)propan-2-ol hydrochloride] | 133 | 
CNC[C@@H](O)[C@H](c1cc(F)cc(Cl)c1)n1ccc2ccccc21 [Example 70, (1S,2R)-1-(3-chloro-5-fluorophenyl)-1-(1H-indol-1-yl)-3-(methylamino)propan-2-ol hydrochloride] | 62 | 
CNC[C@@H](O)[C@H](c1cccc(F)c1)N1C(=O)C2(CCCCC2)c2cccc(F)c21 [Example 110, 7′-fluoro-1′-[(1S,2R)-1-(3-fluorophenyl)-2-hydroxy-3-(methylamino)propyl]spiro[cyclohexane-1,3′-indol]-2′(1′H)-one hydrochloride] | 6 | 
CC1(C)C(=O)N([C@@H](c2cc(F)cc(F)c2)[C@H](O)CN)c2c(F)cccc21 [Example 122, 1-[(1S,2R)-3-amino-1-(3,5-difluorophenyl)-2-hydroxypropyl]-7-fluoro-3,3-dimethyl-1,3-dihydro-2H-indol-2-one] | 207 | 
CNC[C@@H](O)[C@H](c1cc(F)cc(Cl)c1)N1CC(C)(C)c2cccc(F)c21 [Example 114, (1S,2R)-1-(3-chloro-5-fluorophenyl)-1-(7-fluoro-3,3-dimethyl-2,3-dihydro-1H-indol-1-yl)-3-(methylamino)propan-2-ol hydrochloride] | 166 | 
CNC[C@@H](O)[C@H](c1ccccc1)N1CCc2cccc(F)c21 [Example 119, (1S,2R)-1-(7-Fluoro-2,3-dihydro-1H-indol-1-yl)-3-(methylamino)-1-phenylpropan-2-ol hydrochloride] | 39 | 
CNC[C@@H](O)[C@H](c1ccccc1)n1ccc2cc(O)ccc21 [Example 65, 1-[(1S,2R)-2-hydroxy-3-(methylamino)-1-phenylpropyl]-1H-indol-5-ol hydrochloride] | 55 | 
CNC[C@@H](O)[C@H](c1cccc(F)c1)n1c(=O)n(-c2cccc(F)c2)c2cccc(F)c21 [Example 121, 4-fluoro-1-(3-fluorophenyl)-3-[(1S,2R)-1-(3-fluorophenyl)-2-hydroxy-3-(methylamino)propyl]-1,3-dihydro-2H-benzimidazol-2-one hydrochloride] | 189 | 
CNC[C@@H](O)[C@H](c1cccc(F)c1)n1cc(-c2ccc(F)cc2F)c2ccccc21 [Example 38, (1S,2R)-1-[3-(2,4-difluorophenyl)-1H-indol-1-yl]-1-(3-fluorophenyl)-3-(methylamino)propan-2-ol hydrochloride] | 135 | 
CNC[C@@H](O)[C@H](c1cccc(F)c1)n1ccc2cc(OC)nc(Cl)c21 [Example 43, (1S,2R)-1-(7-chloro-5-methoxy-1H-pyrrolo[2,3-c]pyridin-1-yl)-1-(3-fluorophenyl)-3-(methylamino)propan-2-ol hydrochloride] | 299 | 
CNC[C@@H](O)[C@H](c1ccccc1)n1ccc2cc(OCc3ccccn3)ccc21 [Example 92, (1S,2R)-3-(methylamino)-1-phenyl-1-[5-(pyridin-2-ylmethoxy)-1H-indol-1-yl]propan-2-ol hydrochloride] | 9 | 
